Laboratory results reported in patent US20060035904A1, “Antineoplastic combinations” (Wyeth, priority 2001, published 2006).
Where a name gives a salt, the structure may show the parent alone. Each block holds one molecule with its values, some of them ahead of it.

How the values were obtained:
[1] = tested on: histologically diverse tumor cells; details: cited from earlier work
[2] = tested on: human tumor xenografts of diverse histological types; details: cited from earlier work
[3] = tested on: orthotopic glioma; details: nude mice; cited from earlier work
[4] = tested on: human glioblastoma cell line; details: in vitro; cited from earlier work
[5] = tested on: human pancreatic tumors; details: several tumors, nude mice; cited from earlier work
[6] = tested on: breast cancer lines; details: one of two lines studied; cited from earlier work
[7] = tested on: human colon (GC3) xenograft; test: human colon (GC3) mouse xenograft test procedure; format: in vivo, mice; details: gemcitabine on days 1, 4, 8 in cycle 1 only; CCI-779 daily x5 for 2 consecutive weeks every 21 days, 3 cycles
Protocol: Female CBA/CaJ mice (Jackson Laboratories, Bar Harbor, Me.), 4 weeks of age, were immune-deprived by thymectomy, followed 3 weeks later by whole-body irradiation (1200 cGy) using a ^137Cs source. Mice received 3×10^6 nucleated bone marrow cells within 6-8 h of irradiation. Tumor pieces of approximately 3 mm^3 were implanted in the space of the dorsal lateral flanks of the mice to initiate tumor growth. Tumor-bearing mice were randomized into groups of seven prior to initiating therapy. Mice bearing tumors each received drug when tumors were approximately 0.20-1 cm in diameter. Tumor size was determined at 7-day intervals using digital Vernier calipers interfaced with a computer. Tumor volumes were calculated assuming tumors to be spherical using the formula [(π/6)×d^3], where d is the mean diameter. CCI-779 was given on a schedule of 5 consecutive days for 2 weeks with this cycle repeated every 21 days for 3 cycles. […] The schedule of the other chemotherapy drug for each study was as follows: Gemcitabine on days 1, 4, 8 in cycle 1 only. […] In this test procedure, CCI-779 was given daily 5 for 2 consecutive weeks every 21 days for 3 cycles and gemcitabine given on days 1, 4, and 8 in the first cycle only.

[8] = target: mTOR (Homo sapiens, UniProt P42345+P62942); test: Western blot of p70s6 kinase serine389 phosphorylation in growth factor stimulated cells; format: cell-based
Protocol: Cell lines were grown in optimal basal medium supplemented with 10% fetal bovine serum and penicillin/treptomycin. For phosphorylation studies, cells were subcultured in 6-well plates. After the cells have completely attached, they were serum-starved. Treatment with mTOR inhibitors ranged from 2 to 16 hours. After drug treatment, the cells were rinsed once with PBS (phosphate buffered saline without Mg^2+ and Ca^2+) and then lysed in 150-200 μl NuPAGE LDS sample buffer per well. The lysates were briefly sonicated and then centrifuged for 15 minutes at 14000 rpm. Lysates were stored at minus −80° C. until use.
The test procedure can also be run by incubating the cells in growth medium overnight, after they have completely attached.
1) Prepare total protein samples by placing 22.5 μl of lysate per tube and then add 2.5 μl NuPAGE sample reducing agent. Heat samples at 70° C. for 10 minutes. Electrophorese using NuPAGE gels and NuPAGE SDS buffers.
2) Transfer the gel to a nitrocellulose membrane with NuPAGE transfer buffer. The membrane is blocked for 1 hour with blocking buffer (Tris buffered saline with 0.1% Tween and 5% nonfat-milk). Rinse membranes 2× with washing buffer (Tris buffered saline with 0.1% Tween).
3) Blots/membranes are incubated with the Phospho-p70 S6 Kinase (Thr^389) primary antibody (1:1000) in blocking buffer overnight at 4° C. in a rotating platform. […]

SMILES: CO[C@H]1C[C@@H]2CC[C@@H](C)[C@@](O)(O2)C(=O)C(=O)N2CCCC[C@H]2C(=O)O[C@H]([C@H](C)C[C@@H]2CC[C@@H](OC(=O)C(C)(CO)CO)[C@H](OC)C2)CC(=O)[C@H](C)/C=C(\C)[C@@H](O)[C@@H](OC)C(=O)[C@H](C)C[C@H](C)/C=C/C=C/C=C/1C [CCI-779, rapamycin 42-ester with 3-hydroxy-2-(hydroxymethyl)-2-methylpropionic acid]
sensitivity of tumor cell lines in vitro ([1]; CNS cancer, leukemia (T-cell), breast cancer, prostate cancer and melanoma lines): among the most sensitive
growth of tumor cells in vitro ([1]; a number of histologically diverse tumor cells): inhibit the growth
cell cycle effect [1]: arrested cells in the G1 phase
sensitivity of gliomas in vivo ([2]; gliomas): particularly sensitive
activity against human tumor xenografts ([2]; nude mice, diverse histological types): has activity
activity in orthotopic glioma model [3]: active
growth factor (platelet-derived)-induced stimulation [4]: markedly suppressed
growth of human pancreatic tumors [5]: inhibited
growth of breast cancer lines in vivo [6]: inhibited

SMILES: Nc1ccn([C@@H]2O[C@H](CO)[C@@H](O)C2(F)F)c(=O)n1 [gemcitabine, 2′-deoxy-2′,2′-difluorocytidine monohydrochloride ((beta)-isomer)]
tumor regression in the first cycle [7]: tumor regression seen in the first cycle

phosphorylation of serine389 of p70s6 kinase [8]: completely blocks
SMILES: CO[C@H]1C[C@@H]2CC[C@@H](C)[C@@](O)(O2)C(=O)C(=O)N2CCCC[C@H]2C(=O)O[C@H]([C@H](C)C[C@@H]2CC[C@@H](O)[C@H](OC)C2)CC(=O)[C@H](C)/C=C(\C)[C@@H](O)[C@@H](OC)C(=O)[C@H](C)C[C@H](C)/C=C/C=C/C=C/1C [rapamycin]
